Literature values in patent US12686652B2, “Methods of increasing irrigation water and fertilizer delivery to soil using formic acid and formate salts, making a formate salt from carbon dioxide, and generating a carbon credit” (Deerpoint Group, Inc., priority 2023, dated 2026).
Where two headings read alike, the source gives them in different places.

Conditions: cited from earlier work

SMILES: [Fe+2] [Fe^+2]
- Solubility with anion CO3^−2: VSS (VSS means very slightly soluble (20-2,000 ppm))
- Solubility with anion CO3^−2 (listed as Fe^+3): I (I means insoluble (<20 ppm))
- Solubility with anion Cl^− (anion Cl^−): S (S means soluble (over 5,000 ppm))
- Solubility with anion HCO3^−: SS (SS means slightly soluble (2,000 to 5,000 ppm))
- Solubility with anion HCO3^− (listed as Fe^+3): I (I means insoluble (<20 ppm))
- Solubility with anion NO3^− (anion NO3^−): S (S means soluble (over 5,000 ppm))
- Solubility with anion OH^−: VSS (VSS means very slightly soluble (20-2,000 ppm))
- Solubility with anion OH^− (listed as Fe^+3): I (I means insoluble (<20 ppm))
- Solubility with anion PO4^−3 (anion PO4^−3): I (I means insoluble (<20 ppm))
- Solubility with anion SO4^−2 (anion SO4^−2): S (S means soluble (over 5,000 ppm))
- Solubility with anion S^−2 (anion S^−2): I (I means insoluble (<20 ppm))
